Laboratory results published in ChEMBL document CHEMBL3507680, “University of Dundee, Gates Library screen for HepG2 cell viability”.

Assay: Human HepG2 cell viability assay in 384 well format
Type: toxicity, cell-based
Design: dose 125 nL, time 70.5 hour; concentration not given beside the values
Settings: HepG2 cells, read-out: Inhibition
For `c1cnc(N2CC[C@@H]3[C@@H]2CCN3Cc2cccs2)nc1`, the cytotoxicity at 70.5 h was -4.98%.
Work on `CN(C)C(=O)N1CCC2(C1)CN(c1cccnc1)C(=O)CN2C` (stereo unspecified) yielded a cytotoxicity at 70.5 h of -7.38%.
`Cc1noc2ncc(S(=O)(=O)Nc3cc(C(C)(C)C)n[nH]3)cc12` showed a cytotoxicity at 70.5 h of -4.7%.
`COc1cccc(C2CCCN2CCCNS(C)(=O)=O)c1` (stereo unspecified) gave a cytotoxicity at 70.5 h of -12.4%.
In the case of `COCCn1ccnc1C1CCCN(c2cnccn2)C1` (stereo unspecified), the cytotoxicity at 70.5 h is reported as 15.5%.
In the case of `Cc1noc(C)c1C(=O)NCCN1CCN(c2ccccc2)CC1`, the cytotoxicity at 70.5 h is reported as 1.76%.
`Cc1nc2c(c(N(C)C)n1)CCN(C(=O)c1ccc(N)nc1)C2` gave a cytotoxicity at 70.5 h of -7.14%.
In the case of `COc1c(CNCCc2c[nH]c3cc(F)ccc23)c(C(C)C)nn1C`, the cytotoxicity at 70.5 h is reported as 4.03%.
With `CCCNC(=O)Cc1c(C)nc2c(c1C)c(=O)[nH]n2C` the cytotoxicity at 70.5 h was 1.36%.
Compound `CCn1cnnc1CCNS(=O)(=O)N1CCCC1c1ccco1` (stereo unspecified) has a cytotoxicity at 70.5 h of -9.13%.
For `CCNC(=O)c1ccnc(CC2COc3c(cccc3OC)C2)c1` (stereo unspecified), the cytotoxicity at 70.5 h was -38.4%.
With `Cn1cnc(S(=O)(=O)NCCCN2CCCCCC2)c1Cl` the cytotoxicity at 70.5 h was -6.45%.
`Cc1csc(C2(NCCC(=O)N3CCOCC3)CCCC2)n1` showed a cytotoxicity at 70.5 h of 4.83%.
Work on `CNC(=O)CN(C)C(=O)Cc1csc(C(C)C)n1` yielded a cytotoxicity at 70.5 h of 0.629%.
Work on `O=C(c1cccs1)N1C[C@H]2CC[C@@]3(N=C(c4ccccc4)NC3=O)[C@H]2C1` yielded a cytotoxicity at 70.5 h of -4.38%.
With `O=C1CC2(CCN(Cc3ncc[nH]3)CC2)CN1Cc1cc(F)cc(F)c1` the cytotoxicity at 70.5 h was -3.59%.
With `COc1ccc(C(C)NC(=O)C2CCN(S(C)(=O)=O)CC2)cc1C` (stereo unspecified) the cytotoxicity at 70.5 h was -4.77%.
For `COc1cc(F)ccc1NC(=O)NCCNC(=O)OC(C)(C)C`, the cytotoxicity at 70.5 h was -14%.
With `COC(=O)c1ccc(N2CCN(C(=O)c3cc(C)on3)C(C)C2)cc1` (stereo unspecified) the cytotoxicity at 70.5 h was -15.3%.
Compound `Cc1ccc(-c2cc(N)c(=O)n(CC(=O)NC3CCCCC3)n2)s1` has a cytotoxicity at 70.5 h of -17.9%.
In the case of `COc1ccc(C)cc1CN(C)CC(=O)NC1(C)CCS(=O)(=O)C1` (stereo unspecified), the cytotoxicity at 70.5 h is reported as -15.5%.
For `OC(CN1CCN(CCOCC(F)(F)F)CC1)c1ccccc1` (stereo unspecified), the cytotoxicity at 70.5 h was 24.5%.
`CCCN1CCC(c2nc3ccc(-c4cccc(F)c4)cn3n2)CC1` gave a cytotoxicity at 70.5 h of -7.17%.
`O=c1[nH]c(CN2CCOC(Cn3cccn3)C2)nc2ccccc12` (stereo unspecified) showed a cytotoxicity at 70.5 h of -6.2%.
`O=C(Cc1ccncc1)N(CCO)CCSc1ccc(Cl)cc1` gave a cytotoxicity at 70.5 h of -12.1%.
Work on `CC(C)(NC(=O)CCc1ccco1)c1ccc2c(c1)OCCO2` yielded a cytotoxicity at 70.5 h of -2.91%.
Compound `Cc1ccc(S(=O)(=O)NCCNC(=O)c2ccoc2)cc1C` has a cytotoxicity at 70.5 h of -7.77%.
With `Cc1cccc(-c2ccc(C(=O)N3CCSCC3)c(=O)[nH]2)c1` the cytotoxicity at 70.5 h was 0.198%.
Compound `Cc1ccc(N2N=C(C(=O)NCC3CC3)S(=O)(=O)c3cccnc32)cc1` has a cytotoxicity at 70.5 h of -8.14%.
Compound `Cc1cc(C(=O)N2CCCC(n3ccnc3C)C2)c(C)s1` (stereo unspecified) has a cytotoxicity at 70.5 h of -11.2%.
Compound `COc1cccc(CN(C)C(=O)CSc2ccc3c(c2)OCCO3)c1` has a cytotoxicity at 70.5 h of -4.28%.
With `Cc1ccc(Br)cc1C(=O)Nc1cc(C(N)=O)n(C)c1` the cytotoxicity at 70.5 h was -8.22%.
Compound `Cc1cccc(C)c1OCC(=O)N1CCOCC1c1ncon1` (stereo unspecified) has a cytotoxicity at 70.5 h of -2.55%.
Work on `NC(=O)CN1CC2(CCC1=O)CCN(Cc1ccc(F)cc1Cl)CC2` yielded a cytotoxicity at 70.5 h of -1.9%.
Compound `Cc1ccc(-c2nc(CN3CCCCC3Cn3cncn3)no2)cc1` (stereo unspecified) has a cytotoxicity at 70.5 h of -7.36%.
For `CCN(CC(=O)NC(C)C)S(=O)(=O)N1CCCCCC1`, the cytotoxicity at 70.5 h was -5.99%.
With `CC1CCCCN1C(=O)c1ccc(Br)s1` (stereo unspecified) the cytotoxicity at 70.5 h was -5.12%.
With `Cc1c(Cl)cccc1S(=O)(=O)NCC(O)c1cccn1C` (stereo unspecified) the cytotoxicity at 70.5 h was -3.24%.
Work on `CCc1cc(NCC(O)CN2CCCC2)ncn1` (stereo unspecified) yielded a cytotoxicity at 70.5 h of 21.2%.
`CCOCC(O)CN1CCN(C(=O)CC(C)C)CC1` (stereo unspecified) showed a cytotoxicity at 70.5 h of -7.21%.
For `CN(C)S(=O)(=O)N1CCC(Oc2cnccn2)CC1`, the cytotoxicity at 70.5 h was -0.386%.
Compound `CC(C)C(=O)NCc1ccc(N(C)C)cc1` has a cytotoxicity at 70.5 h of -4.78%.
For `Cc1c(C(=O)N[C@H]2CN(CCS(C)(=O)=O)C[C@@H]2C2CC2)cnn1C`, the cytotoxicity at 70.5 h was -5.86%.
With `COCC(=O)N(C)Cc1cccc(Cl)c1` the cytotoxicity at 70.5 h was 38.1%.
For `O=C(c1ccccn1)N1Cc2ccccc2OC2(CCOCC2)C1`, the cytotoxicity at 70.5 h was -0.0226%.
Compound `COCCNC(=O)NCCn1nc(C(F)(F)F)n(C)c1=O` has a cytotoxicity at 70.5 h of -4.7%.
